Assay results from patent US11324738B2, “Muscarinic agonists” (Heptares Therapeutics Limited, priority 2015, dated 2022).

How the values were obtained:
Assay type in all cases: cell-based
[1] = target: T1, human muscarinic M3 receptor (Homo sapiens, UniProt P20309); assay: Alphascreen Surefire phospho-ERK1/2 functional assay, CHO cells expressing M3; conditions: for Emax: CHO, read-out: % Emax cf. ACh, M3; for EC50: agonist, CHO cells, phospho-ERK1/2, read-out: pEC50 M3 (converted)
T1 construct: expressed in transfected cells
T1 sequence (P20309 whole entry): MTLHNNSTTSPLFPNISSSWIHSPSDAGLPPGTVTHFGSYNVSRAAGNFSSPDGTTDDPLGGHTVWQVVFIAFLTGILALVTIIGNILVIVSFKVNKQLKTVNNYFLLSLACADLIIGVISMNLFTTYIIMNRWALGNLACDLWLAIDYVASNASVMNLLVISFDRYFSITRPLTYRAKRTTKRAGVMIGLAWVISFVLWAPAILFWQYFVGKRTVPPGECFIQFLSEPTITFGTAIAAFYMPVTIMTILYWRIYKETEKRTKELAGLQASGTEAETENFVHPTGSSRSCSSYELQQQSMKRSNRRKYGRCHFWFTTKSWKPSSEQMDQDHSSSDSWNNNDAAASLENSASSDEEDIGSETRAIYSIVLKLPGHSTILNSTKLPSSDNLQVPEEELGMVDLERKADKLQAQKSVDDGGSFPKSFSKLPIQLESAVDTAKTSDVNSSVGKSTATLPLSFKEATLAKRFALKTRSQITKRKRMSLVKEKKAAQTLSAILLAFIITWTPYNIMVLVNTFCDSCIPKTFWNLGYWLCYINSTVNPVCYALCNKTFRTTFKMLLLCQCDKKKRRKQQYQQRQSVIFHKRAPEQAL
Experimental: (§1) ERK1/2 phosphorylation is a downstream consequence of both Gq/11 and Gi/o protein coupled receptor activation, making it highly suitable for the assessment of M1, M3 (Gq/11 coupled) and M2, M4 receptors (Gi/o coupled), rather than using different assay formats for different receptor subtypes. CHO cells stably expressing the human muscarinic M1, M2, M3 or M4 receptor were plated (25K/well) onto 96-well tissue culture plates in MEM-alpha+10% dialysed FBS. Once adhered, cells were serum-starved overnight. Agonist stimulation was performed by the addition of 5 μL agonist to the cells for 5 min (37° C.). Media was removed and 50 μL of lysis buffer added. After 15 min, a 4 μL sample was transferred to 384-well plate and 7 μL of detection mixture added.

[2] = target: T2, human muscarinic M2 receptor (Homo sapiens, UniProt P08172); assay: Alphascreen Surefire phospho-ERK1/2 functional assay, CHO cells expressing M2; conditions: for Emax: CHO, read-out: % Emax cf. ACh, M2; for EC50: agonist, CHO cells, phospho-ERK1/2, read-out: pEC50 M2 (converted)
T2 construct: expressed in transfected cells
T2 sequence (P08172 1-466): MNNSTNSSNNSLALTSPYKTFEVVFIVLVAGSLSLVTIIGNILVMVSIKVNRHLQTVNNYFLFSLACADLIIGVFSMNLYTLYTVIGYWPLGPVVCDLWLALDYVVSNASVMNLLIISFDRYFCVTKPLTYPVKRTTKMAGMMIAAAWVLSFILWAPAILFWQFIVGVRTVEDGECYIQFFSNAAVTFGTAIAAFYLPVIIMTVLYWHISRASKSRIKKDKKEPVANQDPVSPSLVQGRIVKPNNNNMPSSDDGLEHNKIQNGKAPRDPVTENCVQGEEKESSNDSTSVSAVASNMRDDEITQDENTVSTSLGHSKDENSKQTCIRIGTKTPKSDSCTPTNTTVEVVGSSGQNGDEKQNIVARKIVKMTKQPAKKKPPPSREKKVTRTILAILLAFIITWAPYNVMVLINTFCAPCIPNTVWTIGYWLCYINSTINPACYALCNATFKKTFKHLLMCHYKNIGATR
Experimental: as §1

[3] = target: T3, human muscarinic M4 receptor (Homo sapiens, UniProt P08173); assay: Alphascreen Surefire phospho-ERK1/2 functional assay, CHO cells expressing M4; conditions: for Emax: CHO, read-out: % Emax cf. ACh, M4; for EC50: agonist, CHO cells, phospho-ERK1/2, read-out: pEC50 M4 (converted)
T3 construct: expressed in transfected cells
T3 sequence (P08173 1-479): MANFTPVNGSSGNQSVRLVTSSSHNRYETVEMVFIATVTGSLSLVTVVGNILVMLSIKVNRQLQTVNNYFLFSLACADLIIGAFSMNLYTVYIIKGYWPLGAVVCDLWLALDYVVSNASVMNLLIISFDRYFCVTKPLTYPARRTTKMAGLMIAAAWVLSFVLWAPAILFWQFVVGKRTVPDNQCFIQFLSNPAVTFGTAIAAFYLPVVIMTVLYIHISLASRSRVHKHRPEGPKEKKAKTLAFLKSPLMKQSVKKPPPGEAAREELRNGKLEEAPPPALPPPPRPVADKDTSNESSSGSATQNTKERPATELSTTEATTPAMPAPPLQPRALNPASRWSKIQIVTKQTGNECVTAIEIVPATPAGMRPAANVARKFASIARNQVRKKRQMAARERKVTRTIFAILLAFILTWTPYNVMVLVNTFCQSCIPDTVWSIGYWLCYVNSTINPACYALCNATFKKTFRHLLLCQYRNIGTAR
Experimental: as §1

[4] = target: T4, human muscarinic M1 receptor (Homo sapiens, UniProt P11229); assay: Alphascreen Surefire phospho-ERK1/2 functional assay, CHO cells expressing M1; conditions: for Emax: CHO, read-out: % Emax cf. ACh, M1; for EC50: agonist, CHO cells, phospho-ERK1/2, read-out: pEC50 M1 (converted)
T4 construct: expressed in transfected cells
T4 sequence (P11229 1-460): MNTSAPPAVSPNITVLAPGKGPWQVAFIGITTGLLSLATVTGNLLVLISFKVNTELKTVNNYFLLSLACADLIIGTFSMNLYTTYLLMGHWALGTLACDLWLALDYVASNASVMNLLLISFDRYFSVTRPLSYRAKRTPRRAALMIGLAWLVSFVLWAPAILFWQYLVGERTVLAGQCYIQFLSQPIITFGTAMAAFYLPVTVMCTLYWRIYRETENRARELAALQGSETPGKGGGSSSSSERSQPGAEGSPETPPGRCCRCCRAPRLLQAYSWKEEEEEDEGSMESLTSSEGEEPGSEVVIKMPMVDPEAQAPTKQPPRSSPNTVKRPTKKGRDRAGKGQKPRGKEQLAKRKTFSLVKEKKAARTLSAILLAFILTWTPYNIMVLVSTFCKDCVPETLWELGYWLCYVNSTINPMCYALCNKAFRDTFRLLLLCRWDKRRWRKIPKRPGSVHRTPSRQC
Experimental: as §1

SMILES	Emax [1] [%]	EC50 [1] [nM]	Emax [2] [%]	EC50 [2] [nM]	Emax [3] [%]	EC50 [3] [nM]	Emax [4] [%]	EC50 [4] [nM]	selectivity for the M4 receptor relative to the M1 receptor ([3]; statement in words)
CCOC(=O)N1CC2(CC(N3CCC(N4CCCC4c4ccon4)CC3)C2)C1 (racemic) [Example 1-5 (racemic), ethyl 6-{4-[2-(1,2-oxazol-3-yl)pyrrolidin-1-yl]piperidin-1-yl}-2-azaspiro[3.3]heptane-2-carboxylate]	10	> 20000	67	> 20000	64	39.8	18	> 20000	–
COC(=O)N1CC2(CCC(N3CCC(c4nccn4C)CC3)C2)C1 (racemic) [Example 2-1 (racemic)]	9	> 20000	17	> 20000	82	15.8	42	126	–
CCOC(=O)N1CC2(CCC(N3CCC(c4nccn4C)CC3)C2)C1 (racemic) [Example 2-2 (racemic), Ethyl 6-[4-(1-methyl-1H-imidazol-2-yl)piperidin-1-yl]-2-azaspiro[3.4]octane-2-carboxylate]	5	> 20000	7	> 20000	102	31.6	7	501	–
CCOC(=O)N1CC2(CCC(N3CCC(n4cccn4)CC3)C2)C1 (racemic) [Example 2-3 (racemic), Ethyl 6-[4-(1H-pyrazol-1-yl)piperidin-1-yl]-2-azaspiro[3.4]octane-2-carboxylate]	5	> 20000	2	> 20000	94	1	105	3.98	–
CCOC(=O)N1CC2(CCC(N3CCC([C@@H]4CCCN4C(=O)NC)CC3)C2)C1 (mixture of isomers) [Example 2-4 (mixture of isomers), Ethyl 6-{4-[(2S)-1-(methylcarbamoyl)pyrrolidin-2-yl]piperidin-1-yl}-2-azaspiro[3.4]octane-2-carboxylate]	2	> 20000	4	> 20000	56	3.16	39	> 20000	–
CCOC(=O)N1CC2(CCC(N3CCC(N4C(=O)CC[C@@H]4C)CC3)C2)C1 (mixture of isomers) [Example 2-5 (mixture of isomers), ethyl 6-{4-[(2S)-2-methyl-5-oxopyrrolidin-1-yl]piperidin-1-yl}-2-azaspiro[3.4]octane-2-carboxylate]	3	> 20000	6	> 20000	36	12.6	38	158	–
CCOC(=O)N1CC2(CCC(N3CCC(N4C(=O)CC[C@@H]4CC)CC3)C2)C1 (mixture of isomers) [Example 2-6 (mixture of isomers), Ethyl 6-{4-[(2S)-2-ethyl-5-oxopyrrolidin-1-yl]piperidin-1-yl}-2-azaspiro[3.4]octane-2-carboxylate]	13	> 20000	8	> 20000	59	7.94	71	15.8	–
CCOC(=O)N1CC2(CCC(N3CCC(N4C(=O)CC[C@H]4C)CC3)C2)C1 (mixture of isomers) [Example 2-7 (mixture of isomers), Ethyl 6-{4-[(2R)-2-methyl-5-oxopyrrolidin-1-yl]piperidin-1-yl}-2-azaspiro[3.4]octane-2-carboxylate]	53	> 20000	9	> 20000	69	3.98	71	39.8	–
CCOC(=O)N1CC2(CCC(N3CCC(N4C(=O)CC[C@H]4CC)CC3)C2)C1 (mixture of isomers) [Example 2-9 (mixture of isomers), Ethyl 6-{4-[(2R)-2-ethyl-5-oxopyrrolidin-1-yl]piperidin-1-yl}-2-azaspiro[3.4]octane-2-carboxylate]	8	> 20000	11	> 20000	123	3.16	100	39.8	–
CCOC(=O)N1CC2(CCC(N3CCC(N4CC(F)(F)C[C@@H]4CO)CC3)C2)C1 (mixture of isomers) [Example 2-10 (mixture of isomers), Ethyl 6-{4-[(2R)-4,4-difluoro-2-(hydroxymethyl)pyrrolidin-1-yl]piperidin-1-yl}-2-azaspiro[3.4]octane-2-carboxylate]	–	–	–	–	32	6.31	6	> 20000	–
COC(=O)N1CC2(CCC(N3CCC(N4CCC[C@@H]4c4cnco4)CC3)C2)C1 (single isomer, unassigned) [Example 2-11 (Isomer 2)]	4	> 20000	6	> 20000	100	79.4	24	> 20000	highly selective for the M4 receptor relative to the M1 receptor
CCOC(=O)N1CC2(CCC(N3CCC(N4CCC[C@@H]4c4cnco4)CC3)C2)C1 (single isomer, unassigned) [Example 2-12 (Isomer 2)]	5	> 20000	7	> 20000	114	1	50	31.6	–
COC(=O)N1CC2(CC(N3CCC(c4nccn4C)CC3)C2)C1 [Example 1-1, Methyl 6-[4-(1-methyl-1H-imidazol-2-yl)piperidin-1-yl]-2-azaspiro[3.3]heptane-2-carboxylate]	–	–	–	–	73	316	113	3160	–
CCOC(=O)N1CC2(CC(N3CCC(c4nccn4C)CC3)C2)C1 [Example 1-2, Ethyl 6-[4-(1-methyl-1H-imidazol-2-yl)piperidin-1-yl]-2-azaspiro[3.3]heptane-2-carboxylate]	–	–	–	–	100	1260	100	10000	–
CCOC(=O)N1CC2(CC(N3CCC([C@@H]4CCCN4C(=O)NC)CC3)C2)C1 [Example 1-4, Ethyl 6-{4-[(2S)-1-(methylcarbamoyl)pyrrolidin-2-yl]piperidin-1-yl}-2-azaspiro[3.3]heptane-2-carboxylate]	7	> 20000	6	> 20000	97	15.8	71	794	–
CCOC(=O)N1CC2(CC(N3CCC(N4C(=O)CC[C@@H]4C)CC3)C2)C1 [Example 1-8, Ethyl 6-{4-[(2S)-2-methyl-5-oxopyrrolidin-1-yl]piperidin-1-yl}-2-azaspiro[3.3]heptane-2-carboxylate]	–	–	–	–	78	200	67	794	–
CCOC(=O)N1CC2(CC(N3CCC(N4C(=O)CC[C@H]4C)CC3)C2)C1 [Example 1-9]	–	–	–	–	117	158	101	1580	–
